Columns and labels:
[1] = Model deblocking (hydrolysis) half-lives of esters with mononucleophile (A+B) or dinucleophile hydroxylamine (A+C), pH 10, 25° C.; format: physicochemical; details: for rate enhancement due to dinucleophile (hydroxylamine) participation, compared with comparison esters E-4 and E-5: pH 10.0, 25° C.; for Ratio (A+B half-life to A+C half-life): rate enhancement due to hydroxylamine
Method: Model studies were conducted on esters E-1 through E-5 to determine the possible rate enhancement which could be attained by using a dinucleophile rather than a mononucleophile to promote the removal from a phenolic moiety of a blocking group of this invention. Aqueous solutions A, B, and C, each containing 50% by volume of acetonitrile were prepared as follows (a separate solution A for each ester):
Solution A: 2.5 × 10^-4 M ester (or 2.5 × 10^-5 M
Solution B: 25% by volume carbonate buffer
(ionic strength 0.75); 0.05 N KCl
Solution C: Solution B with added 0.05 M
Then equal volumes of A and B (or A and C) were mixed at 25° C. to give a pH 10.0 solution and the reaction was followed by spectrophotometric measurements of the phenol (272 nm) or p-nitrophenol (402 nm) produced with time. In each case a reaction half-life (t1/2) was calculated from the equation t1/2 =1n(2)/k, where 1n(2) is the natural logarithm of 2 and k is the pseudo first-order rate constant calculated for the reaction. Smaller half-lives thus indicate more rapid reactions. The A+B combination provides an alkaline solution in which the main reactant is hydroxide ion (a mononucleophile) while in the A+C combination the active reactant is hydroxylamine (a dinucleophile). A ratio of the A+B half-life to the A+C half-life provides a measure of rate enhancement due to participation of hydroxylamine in the deblocking reaction.

[2] = Unblocking of shifted masking coupler in fixed unexposed strips (density at 520 nm); details: blocked compound
Method: Each compound was dispersed in an equal weight of 2,4-di-t-pentylphenol and coated in the following format on a poly(ethylene terephthalate) film support (unless otherwise specified, component amounts are given in mg/m^2 with silver halide counted as silver):
OVERCOAT Gelatin (2691); bis(vinylsulfonyl-
LAYER: methyl) ether hardener (1.75% of
EMULSION Gelatin (3767); unsensitized AgBr
LAYER: emulsion (906); masking coupler
Unexposed strips of this coated element were soaked 1 minute in a fixing solution to remove silver halide, washed, and then immersed in one of the following processing solutions at temperatures conventionally used for processing in a KODAK C-41 process:
P-1: pH 10 carbonate buffer
P-2: pH 10 carbonate buffer with 0.024M hydroxylamine sulfate
P-3: C-41 color developer with hydroxylamine sulfate omitted
P-4: C-41 color developer solution containing hydroxylamine sulfate

[3] = Deblocking of blocked filter dyes in C-41 developer with or without hydroxylamine sulfate at 38° C.; details: unblocked dye
Method: FILTER DYE Gelatin (4844); blocked filter dye
bis(vinylsulfonylmethyl) ether
Strips of each coating were soaked at 38° C. in C-41 developer or in the same C-41 developer formulation from which hydroxylamine sulfate (HAS) had been omitted. The rate of deblocking of each filter dye was followed by measuring the density at the absorption maximum of the unblocked dye at selected time intervals.

Row | rate enhancement due to dinucleophile (hydroxylamine) participation, compared with comparison esters E-4 and E-5 [1] | Ratio (A+B half-life to A+C half-life) [1] | λmax (Unblocked) [3] [nm] | Structure (SMILES) | further results
1 | twenty to seventy thousand times greater | 3.2 × 10^6 | – | CC1(C(=O)Oc2ccccc2)CCCCC1=O (stereo not drawn) [Compound E-3] | –
2 | – | – | – | CCC(C)(C)c1ccc(OCCCCNC(=O)c2cc(Oc3ccc(N=Nc4cc(OC(C)C(=O)O)c5ccccc5c4OC(=O)C4(C)CCCCC4=O)cc3)c3ccccc3c2O)c(C(C)(C)CC)c1 (stereo not drawn) [Compound 3] | absorption maximum (blocked) [2]: about 375 nm
3 | – | – | 440 | CCCCCCCCCCCCOC(=O)c1ccc(N=Nc2ccc(N(CC)C(=O)OCc3ccc(OC(=O)C4(C)CCCCC4=O)c(NS(C)(=O)=O)c3)c(OC)c2)cc1 (stereo not drawn) [Compound 4] | –
4 | – | – | 440 | CCCCCCCCCCCCOC(=O)c1ccc(N=Nc2ccc(N(CC)C(=O)OCc3ccc(OC(=O)C4(C)CCCCC4=O)c(Cl)c3)c(OC)c2)cc1 (stereo not drawn) [Compound 5] | –
5 | twenty to seventy thousand times greater | 36 × 10^3 | – | CC(=O)C(C)(C)C(=O)Oc1ccc([N+](=O)[O-])cc1 [Compound E-1] | –
6 | – | 47 | – | CC(=O)CCC(=O)Oc1ccccc1 [Compound E-4, reference compound] | –
7 | – | 166 | – | CC(=O)CC(C)(C)C(=O)Oc1ccccc1 [Compound E-5, reference compound] | –
8 | – | – | 495 | CCCCCCCCCCCCN(C(=O)OCc1ccc(OC(=O)C2(C)CCCCC2=O)c(NS(C)(=O)=O)c1)c1ccc(N=Nc2ccc([N+](=O)[O-])cc2C(=O)OC)cc1OC (stereo not drawn) [Compound 6] | –
9 | twenty to seventy thousand times greater | 93 × 10^3 | – | CC(=O)C(C)(C)C(=O)Oc1ccccc1 [Compound E-2] | –
